Here are results for three compounds from paper PMC3606385 (PLoS ONE, 2013).

“Also recorded” adds a separate entry of the source. Read-outs that look alike come from different tables or passages of the source.

The target of assay [1] is T1, Human 11β-HSD2 (Homo sapiens, UniProt P80365).
T1 construct: The rat and human kidney microsomes were used for 11β-HSD2 sources; tissue Gentest (Woburn, MA); host or cells: human kidney microsomes
T1 sequence (P80365 1-405): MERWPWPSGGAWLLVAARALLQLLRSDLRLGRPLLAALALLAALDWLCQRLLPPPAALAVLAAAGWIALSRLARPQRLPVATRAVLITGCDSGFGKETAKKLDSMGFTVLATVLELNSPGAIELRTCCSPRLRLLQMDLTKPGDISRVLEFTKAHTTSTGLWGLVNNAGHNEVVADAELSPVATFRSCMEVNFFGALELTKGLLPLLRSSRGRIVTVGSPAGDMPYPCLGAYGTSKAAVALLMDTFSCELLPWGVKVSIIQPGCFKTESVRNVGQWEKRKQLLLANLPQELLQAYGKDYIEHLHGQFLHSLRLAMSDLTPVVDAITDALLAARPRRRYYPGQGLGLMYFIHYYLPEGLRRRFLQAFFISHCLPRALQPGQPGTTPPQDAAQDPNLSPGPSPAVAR
The conditions noted are these: cited from earlier work.

Another assay relates to mouse 11β-HSD2. Also on record: method as in PMID 16103409. The note with it: cited from earlier work.
The target of assay [2] is T2, Human 11β-HSD1 (Homo sapiens, UniProt P28845).
T2 construct: expressed in transfected cells; host or cells: CHOP cells (transient, FuGENE)
The note with it: cited from earlier work.

Another assay deals with mouse 11β-HSD1. The note with it: cited from earlier work.
In the next assay the target is T3, human liver 11β-HSD1 (Homo sapiens, UniProt P28845).
T3 construct: tissue Gentest (Woburn, MA); host or cells: human liver microsomes
Nature of the assay: Mode of inhibition, human liver 11β-HSD1. The class given is biochemical. The note with it: data not shown. As to the method: (§1) The rat testis and liver or human liver microsomes were used for 11β-HSD1 assay. 11β-HSD1 activity was performed in the microsome according to a previously described method. In brief, the assay tubes contained 25 nM substrate 11DHC (for rat) or cortisone (for human), spiked with 30,000 cpm their respective ^3H-11keto-steroid, 0.2 mM NADPH and 5 mM glucose-6-phosphaare in the PBS buffer. 2 µg microsomes were added to each tube to initiate the reaction and the reaction mixture was incubated for up to 2 hrs, during which the reaction is within the linear range. The rest procedure was similar to 11β-HSD1 assay in intact cells.
(§2) The IC50 was determined by adding different concentrations of each compound in the 11β-HSD1 or 11β-HSD2 reaction as described. The mode of inhibition was assayed by adding various concentrations of steroid substrates in the presence of an inhibitor as described.
(§3) Enzyme data were subjected to nonlinear analysis by GraphPad (Version 5, GraphPad Software Inc., San Diego, CA) for IC50. Lineweaver-Burk plot was used for the mode of inhibition. Data were subjected to analysis by one-way ANOVA followed by Tukey's multiple comparisons testing to identify significant differences between groups when three were calculated. Differences were regarded as significant at P<0.05.

The target in assay [3] is T4, rat liver microsomal 11β-HSD1 (Rattus norvegicus, UniProt P16232).
T4 construct: Rat liver, testis and kidney microsomes were prepared as described previously; from tissue; host or cells: rat liver microsomes
Nature of the assay: Mode of inhibition (Lineweaver-Burk), rat liver microsomal 11β-HSD1. The class given is biochemical. The note with it: Lineweaver-Burk plot, substrate 11DHC. The method, then: as §1, §2, §3
On the technique in general: Liver microsomes are a subcellular fraction often used to study metabolism.

Assay [4] concerns the target T2, Human 11β-HSD1. Briefly: 11β-HSD1 assay in intact CHOP cells transfected with human HSD11B1. The format is cell-based. As to the method:
An expression plasmid was constructed to express human 11β-HSD1 (HSD11B1) cDNA in pcDNA I expression vector from its original human HSD11B1 vector (pBluescriptSK+).[15]. The Escherichia coli transformants carrying an insert were selected by colony hybridization, and a clone with the insert in the correct orientation relative to the vector T7 promoter was identified by restriction mapping. All transfections were carried out on 80% confluent cultures in 12-well plates. Aliquots of 1 µg HSD11B1 pcDNA I were transfected into mammalian CHOP cells with the FuGENE Transfection Reagent (Roche) according to manufacturer's protocol. Cells were allowed to grow for 24 hours in media containing 10% fetal bovine serum. Then media were removed and cells were harvested for 11β-HSD1 activity assay.
(§4) 11β-HSD1 reductase activity was performed in intact cells using endogenous cofactor NADPH as described previously. […] 25×10^3 cells were added to each tube to initiate the reaction and the reaction mixture was incubated for up to 2 hrs, during which the reaction is within the linear range. At the end of reaction, the reaction was stopped by adding 2 ml ice-cold ether. The steroids were extracted, and the organic layer was dried under nitrogen. The steroids were separated chromatographically on thin layer plates in chloroform and methanol (90∶10, v/v), and the radioactivity was measured using a scanning radiometer (System AR2000, Bioscan Inc., Washington, DC) as described previously. The percentage conversion of 11DHC to CORT or cortisone to cortisol was calculated by dividing the radioactive counts identified as 11-OH-steroids by the total counts.
as §2

Assay [5] deals with T1, Human 11β-HSD2. Briefly: 11β-HSD2 assay in human kidney microsomes. The format is biochemical. The method, then:
The rat and human kidney microsomes were used for 11β-HSD2 sources. 11β-HSD2 activity was performed in the microsome according to a previously described method. In brief, the assay tubes contained 25 nM substrate CORT (for rat) or cortisol (for human), spiked with 30,000 cpm their respective ^3H-11β-hydroxyl steroid, 0.2 mM NAD+ and 0.1 mM DTT in the PBS buffer. 8 (rat) or 20 (human) µg kidney microsomes were added to each tube to initiate the reaction and the reaction mixture was incubated for up to 3 hrs, during which the reaction is within the linear range. The rest procedure was similar to 11β-HSD1 assay. The percentage conversion of CORT to 11DHC or cortisol to cortisone was calculated by dividing the radioactive counts identified as 11keto-steroids by the total counts.
as §2

A further assay has as its target T5, Rat 11β-HSD2 (Rattus norvegicus, UniProt P50233).
T5 construct: from tissue; host or cells: rat kidney microsomes
T5 sequence (P50233 1-400): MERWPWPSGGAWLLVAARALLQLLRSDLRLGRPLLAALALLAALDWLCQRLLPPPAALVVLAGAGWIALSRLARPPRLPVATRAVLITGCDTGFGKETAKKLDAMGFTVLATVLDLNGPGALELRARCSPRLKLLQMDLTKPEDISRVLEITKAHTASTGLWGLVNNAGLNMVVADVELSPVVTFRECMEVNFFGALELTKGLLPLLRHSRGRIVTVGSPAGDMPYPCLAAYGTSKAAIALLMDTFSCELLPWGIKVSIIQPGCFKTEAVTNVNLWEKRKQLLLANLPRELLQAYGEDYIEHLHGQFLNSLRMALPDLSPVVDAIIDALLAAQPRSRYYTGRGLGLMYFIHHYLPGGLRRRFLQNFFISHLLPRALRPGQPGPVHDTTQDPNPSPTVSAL
Briefly: 11β-HSD2 assay in rat kidney microsomes. The format is biochemical. The method, then: Rats were euthanized by CO2, and livers, testes and kidneys were collected. Rat liver, testis and kidney microsomes were prepared as described previously. In brief, rat liver and kidney were homogenized in […] PBS buffer containing 0.25 M sucrose, and nuclei and large cell debris were removed by centrifugation at 1500× g for 10 min. The post-nuclear supernatants were centrifuged twice at 105,000×g, the resultant microsomal pellets were resuspended. Protein contents were measured by Bio-Rad Dye Reagent Concentrate (Cat.#500-0006). Microsomes were used for measurement of 11β-HSD1 and 11β-HSD2 activities.
The rat and human kidney microsomes were used for 11β-HSD2 sources. 11β-HSD2 activity was performed in the microsome according to a previously described method. […] 8 (rat) or 20 (human) µg kidney microsomes were added to each tube to initiate the reaction and the reaction mixture was incubated for up to 3 hrs, during which the reaction is within the linear range. The rest procedure was similar to 11β-HSD1 assay. The percentage conversion of CORT to 11DHC or cortisol to cortisone was calculated by dividing the radioactive counts identified as 11keto-steroids by the total counts.
as §2

A further assay concerns the target T6, Rat 11β-HSD1 (Rattus norvegicus, UniProt P16232).
T6 construct: endogenous in cells; host or cells: primary adult Sprague-Dawley rat Leydig cells
Nature of the assay: 11β-HSD1 assay in intact rat Leydig cells. The class given is cell-based. The conditions noted are these: intact rat Leydig cells. The method, then:
Rat Leydig cells contain the highest 11β-HSD1 activity in all cell types of rat tissues, and were used for rat 11β-HSD1 enzyme sources. Purified rat Leydig cells were obtained from 90-day-old Sprague-Dawley rats by collagenase digestion of the testes followed by Percoll density centrifugation of the cell suspension, according to the previously described method. […] The purity of cell fractions was evaluated by histochemical staining for 3β-hydroxysteroid dehydrogenase activity with […] etiocholanolone as the steroid substrate.
as §4, §2

Another assay has as its system hyperglycemic KKAy mouse. Also on record: method as in PMID 12190302. The note with it: hyperglycemic KKAy mouse model; cited from earlier work.

T2 sequence (P28845 whole entry): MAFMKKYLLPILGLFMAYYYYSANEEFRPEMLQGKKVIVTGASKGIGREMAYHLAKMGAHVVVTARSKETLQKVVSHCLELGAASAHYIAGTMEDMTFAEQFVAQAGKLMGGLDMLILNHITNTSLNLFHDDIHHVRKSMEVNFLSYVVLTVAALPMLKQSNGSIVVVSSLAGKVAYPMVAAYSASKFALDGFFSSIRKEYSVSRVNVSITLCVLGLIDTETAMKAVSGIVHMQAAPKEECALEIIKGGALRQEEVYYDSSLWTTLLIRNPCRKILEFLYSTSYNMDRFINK
T4 sequence (P16232 whole entry): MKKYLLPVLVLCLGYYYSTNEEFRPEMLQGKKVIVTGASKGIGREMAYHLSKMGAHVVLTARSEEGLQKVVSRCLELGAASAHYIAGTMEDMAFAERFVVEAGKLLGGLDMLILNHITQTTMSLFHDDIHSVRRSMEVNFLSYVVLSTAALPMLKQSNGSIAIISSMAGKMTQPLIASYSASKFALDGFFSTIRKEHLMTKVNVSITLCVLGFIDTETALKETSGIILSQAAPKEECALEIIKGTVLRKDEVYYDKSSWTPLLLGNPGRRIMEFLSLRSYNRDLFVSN
T6 sequence (P16232 whole entry): as above
T3 sequence (P28845 whole entry): as the sequence (P28845 whole entry) above

In the case of `C1CCc2nnc(C34CC5CC(CC(C5)C3)C4)n2CC1` [MK544], the “Selectivity over human 11β-HSD2” value at Human 11β-HSD2 [1] was above 450 fold. For the same compound, the “Selectivity over mouse 11β-HSD2” value in the assay with mouse 11β-HSD2 was above 100 fold. Besides, the half-maximal inhibitory concentration (IC50) (usually the concentration needed to halve the response being measured) on Human 11β-HSD1 [2] is 0.0078 µM; with mouse 11β-HSD1 it was 0.098 µM.
Consider `O=C(/C=C/c1cccs1)/C=C/c1cccs1` [compound 6, (1E,4E)-1,5-bis(thiophen-2-yl) penta-1,4-dien-3-one], for which the “Mode of inhibition of human 11β-HSD1” value at human liver 11β-HSD1 was “same mode; also recorded: competitive inhibitor”. The “Mode of inhibition of rat 11β-HSD1” value in assay [3] is given as “competitive mode; also recorded: competitive inhibitor”. For the same compound, the “Human 11β-HSD1 Potency to Curcumin (fold)” value at Human 11β-HSD1 [4] (CHOP cells transfected with human HSD11B1, relative to curcumin) was determined as 24.68 fold. For the same compound, the IC50 was 93 nM on Human 11β-HSD1 [4] (CHOP cells transfected with human HSD11B1, read-out: Human 11β-HSD1 IC50 (nM) in CHOP cells); above 100000 nM at Human 11β-HSD2 [5] (human kidney microsomes, read-out: IC50 (nM) Human 11β-HSD2); above 100000 nM on Rat 11β-HSD2 (rat kidney microsomes); 184 nM at Rat 11β-HSD1 (read-out: Rat 11β-HSD1 IC50 (nM) in Leydig cells). Moreover, the “Inhibition of human 11β-HSD2 at 100 µM” value at Human 11β-HSD2 [5] (100 µM) is given as “did not inhibit”. The “Inhibition of rat 11β-HSD2 at 100 µM” value at Rat 11β-HSD2 (100 µM) was “did not inhibit”. Also, the “Rat 11β-HSD1 Potency to Curcumin (fold)” value at Rat 11β-HSD1 (relative to curcumin) was found to be 31.44 fold.
Take BVT2733: the “Effect on blood glucose level” value with hyperglycemic KKAy mouse is on record as “significantly lowered”. Further, the IC50 with mouse 11β-HSD1 (mouse enzyme) is 0.096 µM.
